In paper PMC9275698, “Morindone from Morinda citrifolia as a potential antiproliferative agent against colorectal cancer cell lines” (PLoS ONE, 2022):
Structures can show the parent of a compound that is named as a salt.

Tests used:
HCT116 cells = assay: MTT cell cytotoxicity assay, HCT116; assay type: cell-based, human; conditions: for IC50: MTT, 72 hours, mean ± SD; for Selectivity index (SI) HCT116: IC50 in normal cells (CCD841 CoN) / IC50 in HCT116
Experimental: (§1) Three human colorectal cancer cell lines: HT29 cells (colorectal adenocarcinoma with p53 and APC mutation), LS174T cells (colorectal adenocarcinoma with KRAS mutation) and HCT116 cells (colorectal carcinoma with KRAS mutation) as well as normal colon, CCD841 CoN cells were obtained from American Type Cell Culture (Manassas, VA, USA). All cell lines were cultured in an incubator under the condition of 37°C temperature, humidified 5% CO2 air atmosphere. Cells were maintained in Dulbecco’s Modified Eagle Medium (DMEM) (Corning, NY, USA), supplemented with 10% Fetal Bovine Serum (FBS) (Sigma-Aldrich, St Louis, MO, USA), 25mM HEPES (Sangon Biotech, Shanghai, China) and 1% Penicillin/Streptomycin (Merck, Germany).
(§2) HCT116 wells were seeded at 7,500 cells/well while other cells were seeded at 30,000 cells/well in 96 well plates and allowed for 24 hours incubation. Cells were then treated with anthraquinone compounds at series of 2-fold dilution concentrations (50μM, 25μM, 12.5μM, 6.25μM, 3.12μM, 1.56μM, 0.78μM, 0.39μM) for 72 hours. 5-fluorouracil and DOX were used as positive controls in the treatment. Cell cytotoxicity was measured using the MTT Cell Count kit according to the manufacturer’s protocol. Assay was performed in triplicates and repeated in three individual experiments. The absorbance (A) was measured with microplate reader at 570nm wavelength and normalized to control. The half-maximal inhibitory concentration (IC50) value was determined using GraphPad Prism 8 software (GraphPad Software, Inc., CA, USA). Cell viability was calculated as follows: […]

LS174T cells = assay: MTT cell cytotoxicity assay, LS174T; assay type: cell-based, human; conditions: for IC50: Homo sapiens, LS174T, MTT, 72 hours, mean ± SD; for Selectivity index (SI) LS174T: IC50 in normal cells (CCD841 CoN) / IC50 in LS174T
Experimental: as §1, §2

HT29 cells = assay: MTT cell cytotoxicity assay, HT29; assay type: cell-based, human; conditions: for IC50: Homo sapiens, HT-29, MTT, 72 hours, mean ± SD; for Selectivity index (SI) HT29: IC50 in normal cells (CCD841 CoN) / IC50 in HT29
Experimental: as §1, §2

CCD841 CoN cells = assay: MTT cell cytotoxicity assay, normal colon cells; assay type: cell-based; conditions: Homo sapiens, CCD-841CoN, 72 hours
Experimental: as §1, §2

[1] = tested on: MCF-7 cells (breast cancer); conditions: cited from earlier work
[2] = tested on: HCT116 cells (colorectal cancer); conditions: cited from earlier work
[3] = tested on: HepG2 cells (hepatocellular carcinoma); conditions: cited from earlier work
C. lipolytica = tested on: C. lipolytica; parameters: method as in PMID 21214480; conditions: cited from earlier work
[4] = tested on: oxacillin-resistant Staphylococcus aureus; parameters: method as in PMID 20521552; conditions: cited from earlier work

SMILES	IC50 (HCT116 cells; Homo sapiens, HCT-116, 72 h)	Selectivity index (SI) HCT116 (HCT116 cells)	IC50 (HCT116 cells)	IC50 (LS174T cells)	Selectivity index (SI) LS174T (LS174T cells)	IC50 (HT29 cells)	Selectivity index (SI) HT29 (HT29 cells)	IC50 (CCD841 CoN cells)	melting point	IC50 (HCT116 cells; listed as damnacanthal)	Anticancer and antitumor activities towards MCF-7 cells [1]	Anticancer and antitumor activities towards HCT116 cells [2]	Anticancer and antitumor activities towards HepG2 cells [3]	IC50 (HCT116 cells; listed as morindone)	Antimicrobial activity against C. lipolytica (C. lipolytica)	Antimicrobial activity against oxacillin-resistant Staphylococcus aureus [4]
COc1c(O)cc2c(c1O)C(=O)c1ccc(C)c(O)c1C2=O [1,3,5-trihydoxy-2-methoxy-6-methyl anthraquinone]	< 25 µM	4.55	24.57 ± 0.07 µM	> 50 µM	0.97	> 50 µM	0.03	> 50 µM	235 to 239 °C							
O=c1[nH]cc(F)c(=O)[nH]1 [5-Fluorouracil, 5-fluorouracil, reference compound]	5 ± 0.04 µM			4.16 ± 0.02 µM		0.2 ± 0.05 µM										
COc1c(C=O)c(O)cc2c1C(=O)c1ccccc1C2=O [Damnacanthal (2), Damnacanthal]		951.60	0.74 ± 0.06 µM	> 50 µM	0.28	28.17 ± 0.08 µM	24.85	> 50 µM		< 25 µM	Good anticancer and antitumor activities	Good anticancer and antitumor activities	Good anticancer and antitumor activities			
COc1c(CO)c(O)cc2c1C(=O)c1ccccc1C2=O [Damnacanthol (7), Damnacanthol]	< 25 µM		18.47 ± 0.02 µM	> 50 µM	0.59	> 50 µM	1.46	> 50 µM	156 to 158 °C							
COc1cccc2c1C(=O)c1c(O)c3c(c(O)c1C2=O)C[C@@](O)(C(=O)CO)C[C@@H]3O[C@H]1C[C@H](N)[C@H](O)[C@H](C)O1 [Doxorubicin hydrochloride, doxorubicin hydrochloride, reference compound]	0.17 ± 0.04 µM			2.27 ± 0.04 µM		0.3 ± 0.06 µM										
COCc1c(O)cc2c(c1O)C(=O)c1ccccc1C2=O [Lucidin-ω-methylether (8), Lucidin-ω-methylether]	< 25 µM		14.88 ± 0.01 µM	> 50 µM		> 50 µM		> 50 µM	170 to 173 °C							
Cc1ccc2c(c1O)C(=O)c1ccc(O)c(O)c1C2=O [Morindone (4), Morindone]		76.25	10.7 ± 0.04 µM	20.45 ± 0.03 µM	39.89	19.2 ± 0.05 µM	42.49	> 50 µM						< 25 µM	strong antimicrobial activity	strong antimicrobial activity
O=Cc1c(O)cc2c(c1O)C(=O)c1ccccc1C2=O [Nordamnacanthal (1), Nordamnacanthal]	> 50 µM	0.97		> 50 µM	4.79	> 50 µM	0.42	> 50 µM	219 to 222 °C							
Cc1c(O)cc2c(c1O)C(=O)c1ccccc1C2=O [Rubiadin (6), Rubiadin]	> 50 µM			> 50 µM		> 50 µM		> 50 µM								
Cc1ccc2c(c1O)C(=O)c1ccc(O)cc1C2=O [Sorendidiol (5), Sorendidiol]	> 50 µM	7.10		> 50 µM		27.17 ± 0.07 µM	29.19	> 50 µM								
